Test results as given in patent publication US20260022143A1, “Cyclic Peptide Inhibitors of IL-23” (JANSSEN PHARMACEUTICA NV, priority 2022, published 2026).
Starred links: 1 amine or outer side, 2 acyl side, 3 side chain; linkers in the order of their positions; H or OH if unused. Positions of bridges follow the written chain, without caps; N, C: chain ends. Non-standard residues stand in square brackets, D forms with d. Residues, ends and D or L forms follow the SMILES beside them. *: point of attachment. Trp(7-(3-AcNH-Ph)) = CC(=O)Nc1cccc(-c2cccc3c(C[C@H](N)C(=O)O)c[nH]c23)c1; Me3N+(CH2)2O(CH2)2O(CH2)2CO = C[N+](C)(C)CCOCCOCCC(=O)*; CH2CH2OCH2CH2OCH2CH2NMe3+ = C[N+](C)(C)CCOCCOCC*; Phe(4-N3) = [N-]=[N+]=Nc1ccc(C[C@H](N)C(=O)O)cc1; Trp(7-Me) = Cc1cccc2c(C[C@H](N)C(=O)O)c[nH]c12; Abu(4-yl) = O=C([C@H](CC[*:3])N[*:1])[*:2]; Dab(NMeAc) = CC(=O)N(C)CC[C@H](N)C(=O)O; 2Nal = N[C@@H](Cc1ccc2ccccc2c1)C(=O)O; 3Pal = N[C@@H](Cc1cccnc1)C(=O)O; Lys(Me) = CNCCCC[C@H](N)C(=O)O; Pen = CC(C)(S)[C@H](N)C(=O)O; αMeC = C[C@](N)(CS)C(=O)O; Thp = NC1(C(=O)O)CCOCC1; X17 = C[N+]1(CC*)CCOCC1; X3 = C[N+](C)(C)CCCCC*; Me2NCH2CH2 = CN(C)CC*; Sar = CNCC(=O)O

Experiments:
[1] = Exposed Polar Surface Area (EPSA); assay type: physicochemical; conditions: SFC on Chirex 3014 column; sample 1 mM DMSO stock; read-out: EPSA
Method in brief: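 Retention-based polarity: supercritical CO2 with 20 mM ammonium formate in MeOH (5–60%, 20%/min), Chirex 3014 column, 35 °C. Calibrated against 8 standards to give EPSA (Å^2); each sample measured twice.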

[2] = biological target: T1, IL-23R (Homo sapiens, UniProt Q5VWK5); test: IL23R Reporter Assay; assay type: cell-based; conditions: HEK293 cells containing IL-23R, IL-12RP1 and STAT-inducible firefly luciferase reporter; 10 ng/mL IL-23 (EC90); 5 h at 37° C.; read-out: IL23R Reporter Assay
T1 construct: host or cells: HEK293
T1 sequence (Q5VWK5 24-629): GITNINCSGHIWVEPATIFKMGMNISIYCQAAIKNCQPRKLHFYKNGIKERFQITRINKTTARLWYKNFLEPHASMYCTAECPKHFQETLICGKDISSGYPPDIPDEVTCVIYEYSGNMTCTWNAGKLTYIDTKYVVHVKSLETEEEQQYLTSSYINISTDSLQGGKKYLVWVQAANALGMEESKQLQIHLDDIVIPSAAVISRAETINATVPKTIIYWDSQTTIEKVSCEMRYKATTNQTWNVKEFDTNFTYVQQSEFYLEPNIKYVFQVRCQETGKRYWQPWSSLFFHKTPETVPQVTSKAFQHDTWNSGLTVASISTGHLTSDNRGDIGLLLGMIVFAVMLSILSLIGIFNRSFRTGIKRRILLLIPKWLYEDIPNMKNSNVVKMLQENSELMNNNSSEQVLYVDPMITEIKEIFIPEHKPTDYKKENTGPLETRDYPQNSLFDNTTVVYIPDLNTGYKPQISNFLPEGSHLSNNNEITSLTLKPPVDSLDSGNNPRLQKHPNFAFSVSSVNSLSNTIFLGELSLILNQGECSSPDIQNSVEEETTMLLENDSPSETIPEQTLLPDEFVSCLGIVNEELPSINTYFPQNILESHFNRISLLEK

Row | Compound | EPSA [1] [A^2] | IC50 [2] [nM]
1 | CC(=O)N(C)CCCC[C@@H]1NC(=O)[C@H](Cc2c[nH]c3c(C)cccc23)NC(=O)[C@H]([C@@H](C)O)NC(=O)[C@H](CC(=O)N(C)C)NC(=O)[C@@H](NC(=O)CCOCCOCC[N+](C)(C)C)C(C)(C)SSC(C)(C)[C@@H](C(=O)N[C@@H](Cc2ccc(OCCCCC[N+](C)(C)C)cc2)C(=O)N[C@@H](Cc2ccc3ccccc3c2)C(=O)NC2(C(=O)N[C@@H](CCCCN(C)C(C)=O)C(=O)N[C@@H](CC(N)=O)C(=O)N[C@@H](Cc3cccnc3)C(=O)N(C)CC(=O)N(C)C)CCOCC2)NC1=O [compound 484, cPEG3aCO-C(3)-N(N(Me)2)-T-7MeW-K(NMeAc)-Pen(3)-TMAPF-2Nal-THP-K(NMeAc)-N-3Pya-Sar-CON(Me)2] ({Me3N+(CH2)2O(CH2)2O(CH2)2CO}-[Pen]D(NMe2)T[Trp(7-Me)][Lys(Me)](Ac)[Pen]Y(X3)[2Nal][Thp][Lys(Me)](Ac)N[3Pal][Sar]-NMe2; disulfide 1-6) | 163 | 3.1
2 | CC(=O)N(C)CCCC[C@@H]1NC(=O)[C@H](Cc2c[nH]c3ccccc23)NC(=O)[C@H]([C@@H](C)O)NC(=O)[C@H](CC(=O)N(C)C)NC(=O)[C@@H](NC(=O)CCOCCOCC[N+](C)(C)C)C(C)(C)SSC(C)(C)[C@@H](C(=O)N[C@@H](Cc2ccc(OCCCCC[N+](C)(C)C)cc2)C(=O)N[C@@H](Cc2ccc3ccccc3c2)C(=O)NC2(C(=O)N[C@@H](CCCCN(C)C(C)=O)C(=O)N[C@@H](CC(N)=O)C(=O)N[C@@H](Cc3cccnc3)C(=O)N(C)CC(=O)N(C)C)CCOCC2)NC1=O [compound 507, cPEG3aCO-Pen(3)-N(N(Me)2)-T-W-K(NMeAc)-Pen(3)-TMAPF-2Nal-THP-K(NMeAc)-N-3Pya-Sar-CONMe2] ({Me3N+(CH2)2O(CH2)2O(CH2)2CO}-[Pen]D(NMe2)TW[Lys(Me)](Ac)[Pen]Y(X3)[2Nal][Thp][Lys(Me)](Ac)N[3Pal][Sar]-NMe2; disulfide 1-6) | 164 | 3
3 | CC(=O)N(C)CCCC[C@@H]1NC(=O)[C@H](C)NC(=O)[C@H]([C@@H](C)O)NC(=O)[C@H](CC(=O)N(C)C)NC(=O)[C@@H](NC(=O)CCOCCOCC[N+](C)(C)C)C(C)(C)SSC(C)(C)[C@@H](C(=O)N[C@@H](Cc2ccc(OCCCCC[N+](C)(C)C)cc2)C(=O)N[C@@H](Cc2ccc3ccccc3c2)C(=O)NC2(C(=O)N[C@@H](CCCCN(C)C(C)=O)C(=O)N[C@@H](CC(N)=O)C(=O)N[C@@H](Cc3cccnc3)C(=O)N(C)CC(=O)N(C)C)CCOCC2)NC1=O [compound 512, cPEG3aCO-Pen(3)-N(N(Me)2)-T-A-K(NMeAc)-Pen(3)-TMAPF-2Nal-THP-K(NMeAc)-N-3Pya-Sar-CONMe2] ({Me3N+(CH2)2O(CH2)2O(CH2)2CO}-[Pen]D(NMe2)TA[Lys(Me)](Ac)[Pen]Y(X3)[2Nal][Thp][Lys(Me)](Ac)N[3Pal][Sar]-NMe2; disulfide 1-6) | 205 | > 7350
4 | CC(=O)Nc1cccc(-c2cccc3c(C[C@@H]4NC(=O)[C@H]([C@@H](C)O)NC(=O)[C@H](CC(=O)N(C)C)NC(=O)[C@@H](NC(=O)CCOCCOCC[N+](C)(C)C)C(C)(C)SSC(C)(C)[C@@H](C(=O)N[C@@H](Cc5ccc(OCC[N+]6(C)CCOCC6)cc5)C(=O)N[C@@H](Cc5ccc6ccccc6c5)C(=O)NC5(C(=O)N[C@@H](CCCCN(C)C(C)=O)C(=O)N[C@@H](CC(N)=O)C(=O)N[C@@H](Cc6cccnc6)C(=O)N(C)CC(=O)N(C)C)CCOCC5)NC(=O)[C@H](CCCCN(C)C(C)=O)NC4=O)c[nH]c23)c1 [compound 421, cPEG3aCO-Pen(3)-N(N(me)2)-T-7(3NAcPh)W-K(NMeac)-Pen(3)-MMoEF-2Nal-THP-K(NMeAc)-N-3Pya-Sar-CON(Me)2] ({Me3N+(CH2)2O(CH2)2O(CH2)2CO}-[Pen]D(NMe2)T[Trp(7-(3-AcNH-Ph))][Lys(Me)](Ac)[Pen]Y(X17)[2Nal][Thp][Lys(Me)](Ac)N[3Pal][Sar]-NMe2; disulfide 1-6 (inferred)) | 168 | 1.2
5 | CC(=O)N[C@@H]1C(=O)N[C@@H](C)C(=O)N[C@@H]([C@@H](C)O)C(=O)N[C@@H](Cc2c[nH]c3c(C)cccc23)C(=O)N[C@@H](C)C(=O)N[C@H](C(=O)N[C@@H](Cc2ccc(OCCN(C)C)cc2)C(=O)N[C@@H](Cc2ccc3ccccc3c2)C(=O)NC2(C(=O)N[C@@H](CCC(=O)O)C(=O)N[C@@H](CC(N)=O)C(=O)N[C@@H](Cc3cccnc3)C(=O)N(C)CC(=O)N(C)C)CCOCC2)C(C)(C)SSC1(C)C [compound 119] (Ac-[Pen]AT[Trp(7-Me)]A[Pen]Y(Me2NCH2CH2)[2Nal][Thp]EN[3Pal][Sar]-NMe2; disulfide 1-6 (inferred)) | 159 | 6.3
6 | CC(=O)N(C)CCCC[C@@H]1NC(=O)[C@H](C)NC(=O)[C@H]([C@@H](C)O)NC(=O)[C@H](CC(=O)N(C)C)NC(=O)[C@@H](NC(=O)CCOCCOCC[N+](C)(C)C)C(C)(C)SSC(C)(C)[C@@H](C(=O)N[C@@H](Cc2ccc(OCCOCCOCC[N+](C)(C)C)cc2)C(=O)N[C@@H](C)C(=O)NC2(C(=O)N[C@@H](CCCCN(C)C(C)=O)C(=O)N[C@@H](CC(N)=O)C(=O)N[C@@H](Cc3cccnc3)C(=O)N(C)CC(=O)N(C)C)CCOCC2)NC1=O [compound 557, cPEG3aCO-Pen(3)-N(N(Me)2)-T-A-K(NMeAc)-Pen(3)-APEG3F-A-THP-K(NMeAc)-N-3Pya-Sar-CON(Me)2] ({Me3N+(CH2)2O(CH2)2O(CH2)2CO}-[Pen]D(NMe2)TA[Lys(Me)](Ac)[Pen]Y(CH2CH2OCH2CH2OCH2CH2NMe3+)A[Thp][Lys(Me)](Ac)N[3Pal][Sar]-NMe2; disulfide 1-6) | 139 | > 16600
7 | CC(=O)N(C)CCCC[C@@H]1NC(=O)[C@H](Cc2ccc3ccccc3c2)NC(=O)[C@H]([C@@H](C)O)NC(=O)[C@H](CC(=O)N(C)C)NC(=O)[C@@H](NC(=O)CCOCCOCC[N+](C)(C)C)C(C)(C)SSC(C)(C)[C@@H](C(=O)N[C@@H](Cc2ccc(OCCCCC[N+](C)(C)C)cc2)C(=O)N[C@@H](Cc2ccc3ccccc3c2)C(=O)NC2(C(=O)N[C@@H](CCCCN(C)C(C)=O)C(=O)N[C@@H](CC(N)=O)C(=O)N[C@@H](Cc3cccnc3)C(=O)N(C)CC(=O)N(C)C)CCOCC2)NC1=O [compound 509, cPEG3aCO-Pen(3)-N(N(Me)2)-T-2Nal-K(NMeAc)-Pen(3)-TMAPF-2Nal-THP-K(NMeAc)-N-3Pya-Sar-CONMe2] ({Me3N+(CH2)2O(CH2)2O(CH2)2CO}-[Pen]D(NMe2)T[2Nal][Lys(Me)](Ac)[Pen]Y(X3)[2Nal][Thp][Lys(Me)](Ac)N[3Pal][Sar]-NMe2; disulfide 1-6) | 161 | 32
8 | CC(=O)NCCCC[C@@H]1NC(=O)[C@H](Cc2c[nH]c3c(C)cccc23)NC(=O)[C@H]([C@@H](C)O)NC(=O)[C@H](CC(N)=O)NC(=O)[C@@H](NC(=O)CCOCCOCC[N+](C)(C)C)C(C)(C)SSC(C)(C)[C@@H](C(=O)N[C@@H](Cc2ccc(N=[N+]=[N-])cc2)C(=O)N[C@@H](Cc2ccc3ccccc3c2)C(=O)NC2(C(=O)N[C@@H](CCCCNC(C)=O)C(=O)N[C@@H](CC(N)=O)C(=O)N[C@@H](Cc3cccnc3)C(=O)N(C)CC(N)=O)CCOCC2)NC1=O [compound 418, cPEG3aCO-Pen(3)-N-T-7MeW-K(Ac)-Pen(3)-F(4N3)-2Nal-THP-K(Ac)-N-3Pya-Sar-CONH2] ({Me3N+(CH2)2O(CH2)2O(CH2)2CO}-[Pen]NT[Trp(7-Me)]K(Ac)[Pen][Phe(4-N3)][2Nal][Thp]K(Ac)N[3Pal][Sar]-NH2; disulfide 1-6) | 166 | 1.2
9 | CC(=O)NCCCC[C@@H]1NC(=O)[C@H](Cc2c[nH]c3c(C)cccc23)NC(=O)[C@H]([C@@H](C)O)NC(=O)[C@H](CC(=O)N(C)C)NC(=O)[C@@H](NC(=O)CCOCCOCC[N+](C)(C)C)C(C)(C)SSC(C)(C)[C@@H](C(=O)N[C@@H](Cc2ccc(OCCCCC[N+](C)(C)C)cc2)C(=O)N[C@@H](Cc2ccc3ccccc3c2)C(=O)NC2(C(=O)N[C@@H](CCN(C)C(C)=O)C(=O)N[C@@H](CC(N)=O)C(=O)N[C@@H](Cc3cccnc3)C(=O)N(C)CC(=O)N(C)C)CCOCC2)NC1=O [compound 308, cPEG3aCO-Pen(3)-N(N(Me)2)-T-7MeW-K(Ac)-Pen(3)-TMAPF-2Nal-THP-Dab(NMeAc)-N-3Pya-Sar-CON(Me)2] ({Me3N+(CH2)2O(CH2)2O(CH2)2CO}-[Pen]D(NMe2)T[Trp(7-Me)]K(Ac)[Pen]Y(X3)[2Nal][Thp][Dab(NMeAc)]N[3Pal][Sar]-NMe2; disulfide 1-6) | 154 | 2
10 | CC(=O)NCCCC[C@@H]1NC(=O)[C@H](Cc2c[nH]c3ccccc23)NC(=O)[C@H]([C@@H](C)O)NC(=O)[C@H](CC(N)=O)NC(=O)[C@@H](NC(=O)[C@@H](CCCNC(=N)N)NC(C)=O)CCSC[C@@](C)(C(=O)N[C@@H](Cc2ccc(OCCCCC[N+](C)(C)C)cc2)C(=O)N[C@@H](Cc2ccc3ccccc3c2)C(=O)NC2(C(=O)N[C@@H](CCCCNC(C)=O)C(=O)N[C@@H](CC(N)=O)C(=O)N[C@@H](Cc3cccnc3)C(=O)N(C)CC(N)=O)CCOCC2)NC1=O [compound 568, MeCO-r-Abu(1)-N-T-W-K(Ac)-aMeC(1)-TMAPF-2Nal-THP-K(Ac)-N-3Pya-Sar-CONH2] (Ac-[dR][Abu(4-yl)]NTWK(Ac)[αMeC]Y(X3)[2Nal][Thp]K(Ac)N[3Pal][Sar]-NH2; thioether 2-7) | 174 | 390
